Common to all, as to assay: Kinase profiling screen (radioactive filter-binding assay)
Format in all cases: biochemical
Holding throughout (settings): 100 μM compound, 50 μM ATP; read-out: Kinase activity, % of activity in the absence of inhibitor

For assay [1], the target named is T1, MARK4 (Homo sapiens, UniProt Q96L34).
T1 sequence (Q96L34 1-752): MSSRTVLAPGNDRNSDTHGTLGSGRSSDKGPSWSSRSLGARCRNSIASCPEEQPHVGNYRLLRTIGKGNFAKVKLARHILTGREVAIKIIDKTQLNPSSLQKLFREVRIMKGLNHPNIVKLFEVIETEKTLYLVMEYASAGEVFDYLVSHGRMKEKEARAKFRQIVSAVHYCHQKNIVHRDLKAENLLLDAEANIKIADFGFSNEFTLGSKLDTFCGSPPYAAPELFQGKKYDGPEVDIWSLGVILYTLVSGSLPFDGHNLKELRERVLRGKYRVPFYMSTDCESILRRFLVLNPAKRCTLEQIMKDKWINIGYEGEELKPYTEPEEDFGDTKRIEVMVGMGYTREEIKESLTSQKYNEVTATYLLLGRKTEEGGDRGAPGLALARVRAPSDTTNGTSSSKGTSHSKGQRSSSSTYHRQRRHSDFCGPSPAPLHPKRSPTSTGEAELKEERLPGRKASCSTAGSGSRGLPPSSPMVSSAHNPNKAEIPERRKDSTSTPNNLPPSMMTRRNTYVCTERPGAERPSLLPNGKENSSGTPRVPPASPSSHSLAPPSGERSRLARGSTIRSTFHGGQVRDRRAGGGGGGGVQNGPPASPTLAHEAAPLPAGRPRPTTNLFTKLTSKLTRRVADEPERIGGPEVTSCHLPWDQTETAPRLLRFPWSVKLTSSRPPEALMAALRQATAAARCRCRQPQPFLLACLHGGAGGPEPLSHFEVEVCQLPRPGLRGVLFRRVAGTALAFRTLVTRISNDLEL
The method, boiled down:
(§1)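 CoA, dpCoA and ADP were each tested in vitro, in duplicate, at 100 μM final concentration as part of a 117-kinase panel. Recombinant kinases were used with model substrates and optimal ATP concentrations.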

For assay [2], the target named is T2, BRSK2 (Homo sapiens, UniProt Q8IWQ3).
T2 sequence (Q8IWQ3 1-736): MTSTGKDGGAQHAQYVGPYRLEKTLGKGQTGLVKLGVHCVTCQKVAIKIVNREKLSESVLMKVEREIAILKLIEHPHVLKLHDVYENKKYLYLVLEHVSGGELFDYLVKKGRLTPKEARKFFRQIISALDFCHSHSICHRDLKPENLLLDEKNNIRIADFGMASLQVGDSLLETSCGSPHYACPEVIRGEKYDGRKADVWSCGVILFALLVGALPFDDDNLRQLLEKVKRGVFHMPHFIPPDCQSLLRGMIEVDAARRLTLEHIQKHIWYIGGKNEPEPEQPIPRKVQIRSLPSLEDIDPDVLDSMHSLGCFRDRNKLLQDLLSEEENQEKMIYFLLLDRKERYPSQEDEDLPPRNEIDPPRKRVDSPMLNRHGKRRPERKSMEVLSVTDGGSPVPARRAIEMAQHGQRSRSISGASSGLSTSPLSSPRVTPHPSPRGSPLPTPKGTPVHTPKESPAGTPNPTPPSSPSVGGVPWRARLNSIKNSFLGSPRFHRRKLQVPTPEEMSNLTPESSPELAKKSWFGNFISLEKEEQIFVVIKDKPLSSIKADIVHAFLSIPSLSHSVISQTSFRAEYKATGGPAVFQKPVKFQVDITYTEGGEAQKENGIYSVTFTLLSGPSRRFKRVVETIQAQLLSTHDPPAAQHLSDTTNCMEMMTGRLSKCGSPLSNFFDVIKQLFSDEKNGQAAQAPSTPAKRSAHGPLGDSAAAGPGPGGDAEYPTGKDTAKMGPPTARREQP
The method, boiled down:
as §1

Assay [3] has as its target T3, EPH-B4 (Homo sapiens, UniProt P54760).
T3 sequence (P54760 16-987): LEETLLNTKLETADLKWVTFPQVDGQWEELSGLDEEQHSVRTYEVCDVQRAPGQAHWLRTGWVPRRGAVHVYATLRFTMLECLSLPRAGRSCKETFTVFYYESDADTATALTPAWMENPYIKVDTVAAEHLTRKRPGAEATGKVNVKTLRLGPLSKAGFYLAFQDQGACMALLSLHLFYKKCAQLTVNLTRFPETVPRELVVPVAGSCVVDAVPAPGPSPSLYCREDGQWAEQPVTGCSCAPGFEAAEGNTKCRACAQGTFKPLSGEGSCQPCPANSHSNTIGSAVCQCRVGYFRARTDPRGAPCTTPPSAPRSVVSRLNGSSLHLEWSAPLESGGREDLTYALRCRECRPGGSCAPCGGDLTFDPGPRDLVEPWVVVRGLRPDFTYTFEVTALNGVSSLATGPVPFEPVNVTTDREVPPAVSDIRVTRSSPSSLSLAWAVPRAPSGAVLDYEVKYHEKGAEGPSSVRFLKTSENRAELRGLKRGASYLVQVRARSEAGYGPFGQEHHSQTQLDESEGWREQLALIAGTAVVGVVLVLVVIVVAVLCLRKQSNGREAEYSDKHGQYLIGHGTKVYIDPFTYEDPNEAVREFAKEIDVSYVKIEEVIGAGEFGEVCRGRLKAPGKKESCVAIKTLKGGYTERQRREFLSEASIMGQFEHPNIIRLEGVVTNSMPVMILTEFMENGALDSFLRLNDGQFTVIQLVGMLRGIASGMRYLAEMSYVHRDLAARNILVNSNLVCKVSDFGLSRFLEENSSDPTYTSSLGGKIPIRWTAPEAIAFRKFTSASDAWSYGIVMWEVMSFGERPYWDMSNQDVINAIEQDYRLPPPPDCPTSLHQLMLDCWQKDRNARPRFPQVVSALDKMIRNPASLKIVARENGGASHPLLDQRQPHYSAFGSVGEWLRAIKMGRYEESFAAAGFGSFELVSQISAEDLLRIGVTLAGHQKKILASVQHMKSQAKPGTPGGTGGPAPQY
The method, boiled down: as §1

Data on three compounds can be found in PMC6812009, “Covalent Aurora A regulation by the metabolic integrator coenzyme A” (Redox Biology, 2019).

In the case of `Nc1ncnc2c1ncn2C1OC(COP(=O)(O)OP(=O)(O)O)C(O)C1O` (stereo not drawn) [ADP], the activity at 100 µM was 49.1% in assay [1], 52.4% in assay [2] and 9.8% in assay [3].
Consider `CC(C)(COP(=O)(O)OP(=O)(O)OC[C@H]1O[C@@H](n2cnc3c(N)ncnc32)[C@H](O)[C@@H]1OP(=O)(O)O)[C@@H](O)C(=O)NCCC(=O)NCCS` [CoA, Coenzyme A], for which the activity at 100 µM was 87.7% in assay [1], 115% in assay [2] and 107% in assay [3].
`CC(C)(COP(=O)(O)OP(=O)(O)OCC1OC(n2cnc3c(N)ncnc32)C(O)C1O)C(O)C(=O)NCCC(=O)NCCS` (stereo not drawn) [dpCoA, dephospho-CoA]: the results for the activity at 100 µM in assay [1], in assay [2] and in assay [3] were 86.6%, 88.8% and 62.1%, respectively.
